Reference: US7504420B2, “Compounds which inhibit beta-secretase activity and methods of use” (CoMentis, Inc., priority 2005, dated 2009)
Counter-ions that a name gives are not always drawn. Like-named read-outs stand apart in the source and are kept apart here.

Columns and labels:
[1] = tested on: Aβ production in Chinese hamster ovary cells that over-express human APP695 with the London and Swedish mutations; test: Cellular Aβ IC50 determination (Aβ40 sandwich ELISA); details: 24 h
memapsin 2 = memapsin 2 (Homo sapiens, UniProt P56817); test: Inhibition of memapsin 2 catalytic activity (Ki); format: biochemical; details: memapsin 2, pH 4, 37° C.; read-out: M2K
Experimental: Potency of compounds were determined by measurement of their inhibition of memapsin 2 catalytic activity toward a fluorescent substrate. […] Briefly, assays were performed at pH 4, 37° C., by pre-incubation of memapsin 2 enzyme with compound for 20 minutes. Activity measure was initiated by addition of a fluorogenic substrate FS-2 (Bachem Americas, Torrance, Calif.). Fluorescent signal increase over time was measured as a rate of hydrolysis of the peptide substrate. […]

[2] = Cricetulus griseus, CHO, read-out: Cell, Aβ40, CHO cells over-expressing human APP695 (London and Swedish mutations), 24 h

Chain of memapsin 2 (P56817 46-501): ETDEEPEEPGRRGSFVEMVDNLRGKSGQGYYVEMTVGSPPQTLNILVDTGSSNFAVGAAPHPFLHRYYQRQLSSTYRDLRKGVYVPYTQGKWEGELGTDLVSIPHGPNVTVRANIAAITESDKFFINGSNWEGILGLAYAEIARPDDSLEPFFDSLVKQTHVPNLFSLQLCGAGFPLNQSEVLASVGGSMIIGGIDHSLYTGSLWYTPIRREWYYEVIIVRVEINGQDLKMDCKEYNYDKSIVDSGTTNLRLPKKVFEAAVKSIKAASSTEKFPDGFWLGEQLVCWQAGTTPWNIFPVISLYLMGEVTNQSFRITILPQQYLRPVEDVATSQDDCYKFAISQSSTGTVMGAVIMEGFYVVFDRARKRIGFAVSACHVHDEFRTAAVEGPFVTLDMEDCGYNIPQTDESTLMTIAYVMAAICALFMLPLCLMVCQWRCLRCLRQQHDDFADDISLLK

IC50 [1, 2] [nM] | Ki (memapsin 2) [nM] | IC50 ([1]; read-out: Cell, Aβ40, CHO cells over-expressing human APP695 (London and Swedish mutations)) [nM] | IC50 ([1]; read-out: Cell, Aβ40, CHO cells over-expressing human APP695 (London and Swedish mutations), dihydrochloride) [nM] | Compound
< 1000 | < 300 | – | – | CCc1csc(CN(C)C(=O)c2cccc(C(=O)NC(Cc3ccccc3)C(O)CNCc3cccc(OC)c3)c2)n1 (stereo not shown) [N1-((4-ethylthiazol-2-yl)methyl)-N3-(3-hydroxy-4-(3-methoxybenzylamino)-1-phenylbutan-2-yl)-N1-methylisophthalamide]
1000 to 5000 | > 501 | – | – | COc1ccccc1CCNCC(O)C(Cc1ccccc1)NC(=O)c1cccc(C(=O)N(C)Cc2nc(C)cs2)c1 (stereo not shown) [N1-(3-hydroxy-4-(2-methoxyphenethylamino)-1-phenylbutan-2-yl)-N3-methyl-N3-((4-methylthiazol-2-yl)methyl)isophthalamide]
1000 to 5000 | > 501 | – | – | COc1ccc(CNCC(O)C(Cc2ccccc2)NC(=O)c2cccc(C(=O)N(C)Cc3nc(C)cs3)c2)cc1 (stereo not shown) [N1-(3-hydroxy-4-(4-methoxybenzylamino)-1-phenylbutan-2-yl)-N3-methyl-N3-((4-methylthiazol-2-yl)methyl)isophthalamide]
1000 to 5000 | 301 to 500 | – | – | CC(NC(=O)c1cc(C(=O)NC(Cc2ccccc2)C(O)CNCc2c[nH]cn2)cc(N(C)S(C)(=O)=O)c1)c1ccccc1 (stereo not shown) [N1-(4-((1H-imidazol-4-yl)methylamino)-3-hydroxy-1-phenylbutan-2-yl)-5-(N-methylmethylsulfonamido)-N3-(1-phenylethyl)isophthalamide]
< 1000 | < 300 | – | – | COc1cccc(CNCC(O)C(Cc2ccccc2)NC(=O)c2cc(C(=O)NC(C)c3nccs3)cc(N(C)S(C)(=O)=O)c2)c1 (stereo not shown) [N1-(3-hydroxy-4-(3-methoxybenzylamino)-1-phenylbutan-2-yl)-5-(N-methylmethylsulfonamido)-N3-(1-(thiazol-2-yl)ethyl)isophthalamide]
< 1000 | < 300 | – | – | Cc1csc(CN(C)C(=O)c2cccc(C(=O)NC(Cc3ccccc3)C(O)CNCc3cncc(CC(C)C)c3)c2)n1 (stereo not shown) [N1-(3-hydroxy-4-((5-isobutylpyridin-3-yl)methylamino)-1-phenylbutan-2-yl)-N3-methyl-N3-((4-methylthiazol-2-yl)methyl)isophthalamide]
< 1000 | < 300 | – | – | Cc1csc(CN(C)C(=O)c2cccc(C(=O)NC(Cc3ccccc3)C(O)CNCc3cccc(CC(C)C)c3)c2)n1 (stereo not shown) [N1-(3-hydroxy-4-(3-isobutylbenzylamino)-1-phenylbutan-2-yl)-N3-methyl-N3-((4-methylthiazol-2-yl)methyl)isophthalamide]
1000 to 5000 | > 501 | – | – | COc1ccc(CCNCC(O)C(Cc2ccccc2)NC(=O)c2cccc(C(=O)N(C)Cc3nc(C)cs3)c2)cc1 (stereo not shown) [N1-(3-hydroxy-4-(4-methoxyphenethylamino)-1-phenylbutan-2-yl)-N3-methyl-N3-((4-methylthiazol-2-yl)methyl)isophthalamide]
< 1000 | < 300 | – | – | CCOc1cncc(CNCC(O)C(Cc2ccccc2)NC(=O)c2cc(C(=O)NC(C)c3ccccc3)cc(N(C)S(C)(=O)=O)c2)c1 (stereo not shown) [N1-(4-((5-ethoxypyridin-3-yl)methylamino)-3-hydroxy-1-phenylbutan-2-yl)-5-(N-methylmethylsulfonamido)-N3-(1-phenylethyl)isophthalamide]
< 1000 | < 300 | – | – | COc1cccc(CNCC(O)C(Cc2ccccc2)NC(=O)c2cccc(C(=O)N(C)Cc3csc(C)n3)c2)c1 (stereo not shown) [N1-(3-hydroxy-4-(3-methoxybenzylamino)-1-phenylbutan-2-yl)-N3-methyl-N3-((2-methylthiazol-4-yl)methyl)isophthalamide]
< 1000 | < 300 | – | – | C#Cc1cccc(CNCC(O)C(Cc2ccccc2)NC(=O)c2cccc(C(=O)N(C)Cc3nc(C)cs3)c2)c1 (stereo not shown) [N1-(4-(3-ethynylbenzylamino)-3-hydroxy-1-phenylbutan-2-yl)-N3-methyl-N3-((4-methylthiazol-2-yl)methyl)isophthalamide]
< 1000 | < 300 | – | – | Cc1cc(C(C)NCC(O)C(Cc2ccccc2)NC(=O)c2cc(C(=O)NC(C)c3ccccc3)cc(N(C)S(C)(=O)=O)c2)on1 (stereo not shown) [N1-(3-hydroxy-4-(1-(3-methylisoxazol-5-yl)ethylamino)-1-phenylbutan-2-yl)-5-(N-methylmethylsulfonamido)-N3-(1-phenylethyl)isophthalamide]
< 1000 | < 300 | – | – | COc1cccc(CNCC(O)C(Cc2ccccc2)NC(=O)c2cc(C(=O)NC(C)c3nc(C)co3)cc(N(C)S(C)(=O)=O)c2)c1 (stereo not shown) [N1-(3-hydroxy-4-(3-methoxybenzylamino)-1-phenylbutan-2-yl)-5-(N-methylmethylsulfonamido)-N3-(1-(4-methyloxazol-2-yl)ethyl)isophthalamide]
< 1000 | < 300 | – | – | COc1cccc(CNCC(O)C(Cc2ccccc2)NC(=O)c2cc(C(=O)N(C)Cc3nc(C)cs3)cc([N+](=O)[O-])c2)c1 (stereo not shown) [N1-(3-hydroxy-4-(3-methoxybenzylamino)-1-phenylbutan-2-yl)-N3-methyl-N3-((4-methylthiazol-2-yl)methyl)-5-nitroisophthalamide]
< 1000 | < 300 | – | – | Cc1csc(CN(C)C(=O)c2cccc(C(=O)NC(Cc3ccccc3)C(O)CNCc3cccc(OC(F)F)c3)c2)n1 (stereo not shown) [N1-(4-(3-(difluoromethoxy)benzylamino)-3-hydroxy-1-phenylbutan-2-yl)-N3-methyl-N3-((4-methylthiazol-2-yl)methyl)isophthalamide]
< 1000 | – | – | – | COc1ccnc(CNCC(O)C(Cc2ccccc2)NC(=O)c2cc(C(=O)NC(C)c3ccccc3)cc(N(C)S(C)(=O)=O)c2)c1 (stereo not shown) [N1-(3-hydroxy-4-((4-methoxypyridin-2-yl)methylamino)-1-phenylbutan-2-yl)-5-(N-methylmethylsulfonamido)-N3-(1-phenylethyl)isophthalamide]
1000 to 5000 | – | – | – | COc1cccc(CN(CC(O)C(Cc2ccccc2)NC(=O)c2cc(C(=O)NC(C)c3ccccc3)cc(N(C)S(C)(=O)=O)c2)C(=O)CCC(=O)NCCN2CCOCC2)c1 (stereo not shown) [N1-(3-hydroxy-4-(N-(3-methoxybenzyl)-4-(2-morpholinoethylamino)-4-oxobutanamido)-1-phenylbutan-2-yl)-5-(N-methylmethylsulfonamido)-N3-(1-phenylethyl)isophthalamide]
1000 to 5000 | – | – | – | COc1cccc(CN(CC(O)C(Cc2ccccc2)NC(=O)c2cc(C(=O)NC(C)c3ccccc3)cc(N(C)S(C)(=O)=O)c2)C(=O)CN(C)C)c1 (stereo not shown) [N1-(4-(2-(dimethylamino)-N-(3-methoxybenzyl)acetamido)-3-hydroxy-1-phenylbutan-2-yl)-5-(N-methylmethylsulfonamido)-N3-(1-phenylethyl)isophthalamide]
> 5000 | – | – | – | COc1cccc(CN(CC(O)C(Cc2ccccc2)NC(=O)c2cc(C(=O)NC(C)c3ccccc3)cc(N(C)S(C)(=O)=O)c2)C(=O)CCCC(=O)NCCN2CCOCC2)c1 (stereo not shown) [N1-(3-hydroxy-4-(N-(3-methoxybenzyl)-5-(2-morpholinoethylamino)-5-oxopentanamido)-1-phenylbutan-2-yl)-5-(N-methylmethylsulfonamido)-N3-(1-phenylethyl)isophthalamide]
> 5000 | – | – | – | COc1cccc(CN(CC(O)C(Cc2ccccc2)NC(=O)c2cc(C(=O)NC(C)c3ccccc3)cc(N(C)S(C)(=O)=O)c2)C(=O)CCC(=O)NCc2cccnc2)c1 (stereo not shown) [N1-(3-hydroxy-4-(N-(3-methoxybenzyl)-4-oxo-4-(pyridin-3-ylmethylamino)butanamido)-1-phenylbutan-2-yl)-5-(N-methylmethylsulfonamido)-N3-(1-phenylethyl)isophthalamide]
< 1000 | – | – | – | COc1cccc(CNCC(O)C(Cc2ccccc2)NC(=O)c2cc(C(=O)NC(C)c3nc(C)cs3)cc(N(C)S(C)(=O)=O)c2)c1 (stereo not shown) [N1-(3-hydroxy-4-(3-methoxybenzylamino)-1-phenylbutan-2-yl)-5-(N-methylmethylsulfonamido)-N3-(1-(4-methylthiazol-2-yl)ethyl)isophthalamide]
– | – | 1000 to 5000 | – | COc1ccccc1CN1CCC(CNCC(O)C(Cc2ccccc2)NC(=O)c2cc(C(=O)NC(C)c3ccccc3)cc(N(C)S(C)(=O)=O)c2)CC1 (stereo not shown) [N1-(3-hydroxy-4-((1-(2-methoxybenzyl)piperidin-4-yl)methylamino)-1-phenylbutan-2-yl)-5-(N-methylmethylsulfonamido)-N3-(1-phenylethyl)isophthalamide]
> 5000 | – | – | – | COc1cccc(CN(CC(O)C(Cc2ccccc2)NC(=O)c2cc(C(=O)NC(C)c3ccccc3)cc(N(C)S(C)(=O)=O)c2)C(=O)CCCC(=O)NN2CCN(C)CC2)c1 (stereo not shown) [N1-(3-hydroxy-4-(N-(3-methoxybenzyl)-5-(4-methylpiperazin-1-ylamino)-5-oxopentanamido)-1-phenylbutan-2-yl)-5-(N-methylmethylsulfonamido)-N3-(1-phenylethyl)isophthalamide]
– | – | – | > 5000 | COc1ccccc1CN1CCC(CNCC(O)C(Cc2ccccc2)NC(=O)c2cc(C(=O)NC(C)c3ccccc3)cc(N(C)S(C)(=O)=O)c2)CC1 (stereo not shown) [N1-(3-hydroxy-4-((1-(2-methoxybenzyl)piperidin-4-yl)methylamino)-1-phenylbutan-2-yl)-5-(N-methylmethylsulfonamido)-N3-(1-phenylethyl)isophthalamide dihydrochloride]
< 1000 | – | – | – | COc1cccc(CNCC(O)C(Cc2cc(F)cc(F)c2)NC(=O)c2cc(C(=O)NC(C)c3ccccc3)cc(N(C)S(C)(=O)=O)c2)c1 (stereo not shown) [N1-(1-(3,5-difluorophenyl)-3-hydroxy-4-(3-methoxybenzylamino)butan-2-yl)-5-(N-methylmethylsulfonamido)-N3-(1-phenylethyl)isophthalamide]
